Data from patent publication US20240181089A1, “PHARMACEUTICAL POLYMER CONJUGATES” (priority 2021, published 2024).

Assays:
[1] = test system: folate receptor (FR) isoforms FR-α and FR-β; conditions: Vaitilingam et al.; cited from earlier work
[2] = test system: 4T1 murine triple negative breast cancer cell line; type: cell-based; conditions: 24 h treatment, LDH release, 4T1 cells, expressed in zinc concentration
Description: 24 h in vitro cytotoxicity was tested for each compound against 4T1 murine triple negative breast cancer cell line in obtaining their IC5024h values using lactate dehydrogenase release assay (LDH assay), which were expressed in zinc concentration (μM Zn) units for comparative viewing.

4T1 cells [3] = test: Apoptosis-necrosis flow cytometry with annexinV (A5) and propidium iodide (PI); type: cell-based, murine
4T1 cells [4] = test: Confocal microscopy mode-of-action test (cell detachment, anti-AIF, TUNEL, Hoechst) with or without PJ34; type: cell-based, murine; conditions: 1.5 h treatment
Description: In addition to the cytotoxicity featuring the simultaneous uptake of PI and A5, Fatokun et al. previously defined PARP-dependent nuclear translocation of AIF and subsequent generation of massive DNA breaks as the hallmark features of parthanatos (Parthanatos: mitochondrial-linked mechanisms and therapeutic opportunities. British journal of pharmacology 171, 2000-2016 (2014)). To investigate whether the observed PI+A5 + necrotic 4T1 cell deaths by the zinc compounds (FIG. 5B and 5C) accompanied these features, we performed confocal microscopy studies after 1.5 h treatment for assessing the occurrence of PARP-dependent cytotoxicity, nuclear AIF translocation, and DNA breaks using fluorescent probes of anti-AIF, TUNEL, and Hoechst 33342 (Hoechst) DNA stain upon co-incubation with a potent PARP1 and PARP2 inhibitor PJ34. Assessment of PAR-polymer content, however, could not be incorporated into this experiment due to unavailability of sufficiently sensitive fluorescent probe for PAR-polymer during this study. Also, any longer treatment time could not be applied to this experiment due to extensive cytotoxic changes observed in the C010DS-Zn treated groups.

cancer cell lines = conditions: NPL6; cited from earlier work
[5] = concentration-resolved study after 3 h treatment

CN(CC1CNc2nc(N)[nH]c(=O)c2N1C)c1ccc(C(=O)N[C@@H](CCC(=O)O)C(=O)O)cc1 (some centres unmarked) [DMTHF, N^5, N^10-dimethyl tetrahydrofolate]
folate receptor isoform preference [1]: higher affinity for FR-α over FR-β

O=S(=O)([O-])[O-].[Zn+2] [zinc sulfate]
IC50 [2]: 80.7 µM | A5+ only apoptotic cell deaths (4T1 cells [3]; [5]): without notable increases | proportion of PI+ only necrosis (4T1 cells [3]; [5]): 18% | proportion of PI+A5+ necrosis (4T1 cells [3]; [5]): 4% | PI+ only or PI+A5+ necrotic cell death (4T1 cells [3]; concentration-resolved study after 3 h treatment, maximum): ≤ 26% | time after treatment at which mainly PI+A5+ and minor PI+ only necrotic cell death was induced (4T1 cells [3]; time resolved study, 450 μM Zn): 1.5 h | nuclear AIF translocation and DNA damages (TUNEL) (4T1 cells [4]): failed to elicit significantly higher nuclear AIF translocation nor the DNA damages | cell detachment (4T1 cells [4]; all concentrations tested): did not cause marked cell detachment

zinc pyrithione [ZnPyr2]
PARP cleavage (cancer cell lines): complete PARP cleavage | mode of cell death (cancer cell lines): induced apoptosis in cancer cell lines
